Experimental data taken from patent publication US20210277020A1, “HETEROCYCLIC COMPOUNDS AS MONOACYLGLYCEROL LIPASE INHIBITORS” (Hoffmann-La Roche Inc., priority 2018, published 2021).

Columns and labels:
[1] = molecular target: T1, MAGL (recombinant wild-type) (Homo sapiens, UniProt Q99685); assay: 4-NPA assay: MAGL inhibition followed by hydrolysis of 4-nitrophenylacetate, absorbance at 405 nm; format: biochemical; settings: measured in 4-NPA assay (footnote [b]); 1 nM MAGL, 300 μM 4-nitrophenylacetate
T1 sequence (Q99685 1-303): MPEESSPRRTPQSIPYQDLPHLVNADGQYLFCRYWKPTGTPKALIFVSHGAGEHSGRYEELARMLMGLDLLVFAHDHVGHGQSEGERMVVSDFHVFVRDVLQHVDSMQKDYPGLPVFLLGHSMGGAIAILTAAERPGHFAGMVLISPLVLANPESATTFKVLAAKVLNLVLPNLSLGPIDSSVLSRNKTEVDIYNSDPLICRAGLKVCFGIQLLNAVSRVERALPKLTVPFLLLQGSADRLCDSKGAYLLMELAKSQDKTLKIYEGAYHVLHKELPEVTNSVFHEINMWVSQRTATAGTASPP
Procedure: Compounds were profiled for MAGL inhibitory activity by measuring the enzymatic activity of MAGL by following the hydrolysis of 4-nitrophenylacetate resulting in 4-nitrophenol, which absorbs at 405-412 nm (G. G. Muccioli, G. Labar, D. M. Lambert, Chem. Bio. Chem. 2008, 9, 2704-2710). This assay is hereinafter abbreviated “4-NPA assay”.
The 4-NPA assay was carried out in 384 well assay plates (black with clear bottom, non-binding surface treated, Corning Ref. 3655) in a total volume of 40 μL. Compound dilutions were made in 100% DMSO (VWR Chemicals 23500.297) in a polypropylene plate in 3-fold dilution steps to give a final concentration range in the assay from 25 μM to 1.7 nM. 1 μL compound dilutions (100% DMSO) were added to 19 μL MAGL (recombinant wild-type) in assay buffer (50 mM TRIS (GIBCO, 15567-027), 1 mM EDTA (Fluka, 03690-100 mL)). The plate was shaked for 1 min at 2000 rpm (Variomag Teleshake) and then incubated for 15 min at RT. To start the reaction, 20 μL 4-Nitrophenlyacetate (Sigma N-8130) in assay buffer with 6% EtOH was added. The final concentrations in the assay were 1 nM MAGL and 300 μM 4-Nitrophenylacetate. After shaking (1 min, 2000 rpm) and 5 min incubation at RT, the absorbance at 405 nm was measured for a fist time (Molecular Devices, SpectraMax Paradigm). A second measurement was then done after incubation for 80 min at RT. From the two measurements, the slope was calculated by subtracting the first from the second measurement.

MAGL = molecular target: T2, MAGL (Homo sapiens, UniProt Q99685); assay: 2-AG assay: MAGL inhibition followed by hydrolysis of 2-arachidonoylglycerol to arachidonic acid, mass spectrometry; format: biochemical; settings: measured in 2-AG assay (footnote [a]); substrate 2-arachidonoylglycerol 8 μM, 30 min at RT
T2 sequence (Q99685 1-303): T1 sequence (Q99685 1-303)
In short: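 Test compounds (final […], 3-fold steps) preincubated 15 min at RT with […] in 50 mM Tris, 1 mM EDTA, 0.01% Tween; 8 μM 2-arachidonoylglycerol then added for 30 min at RT. Acetonitrile quench; arachidonic acid measured by RapidFire SPE–MS/MS, activity from arachidonic acid/d8-arachidonic acid ratio.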

| Compound | IC50 [1] [µM] | IC50 (MAGL) [µM] |
| --- | --- | --- |
| O=C1CO[C@H]2CCN(C(=O)N3CCC(C(=O)N(CCO)Cc4ccccc4)CC3)C[C@H]2N1 [Example 63, N-Benzyl-N-(2-hydroxyethyl)-1-((4aR,8aS)-3-oxooctahydro-2H-pyrido[4,3-b][1,4]oxazine-6-carbonyl)piperidine-4-carboxamide] | 4.4 |  |
| O=C1CO[C@H]2CCN(C(=O)N3CCC(C(=O)NCc4ccccc4)CC3)C[C@H]2N1 [Example 65, N-Benzyl-1-((4aR,8aS)-3-oxooctahydro-2H-pyrido[4,3-b][1,4]oxazine-6-carbonyl)piperidine-4-carboxamide] | 2.9 |  |
| CN(C(=O)c1ccc(C(F)(F)F)cc1)C1CCN(C(=O)N2CC[C@@H]3OCC(=O)N[C@@H]3C2)CC1 [Example 85, N-[1-[(4aR,8aS)-3-oxo-4,4a,5,7,8,8a-hexahydropyrido[4,3-b][1,4]oxazine-6-carbonyl]piperidin-4-yl]-N-methyl-4-(trifluoromethyl)benzamide] | 1.99 |  |
| CN(C(=O)Cc1cccc(C(F)(F)F)c1)C1CCN(C(=O)N2CC[C@@H]3OCC(=O)N[C@@H]3C2)CC1 [Example 86, N-[1-[(4aR,8aS)-3-oxo-4,4a,5,7,8,8a-hexahydropyrido[4,3-b][1,4]oxazine-6-carbonyl]piperidin-4-yl]-N-methyl-2-[3-(trifluoromethyl)phenyl]acetamide] | 0.519 |  |
| O=C1CO[C@H]2CCN(C(=O)N3CC(O)(C#Cc4ccccc4Cl)C3)C[C@H]2N1 [Example 190, (4aR,8aS)-6-[3-[2-(2-Chlorophenyl)ethynyl]-3-hydroxyazetidine-1-carbonyl]-4,4a,5,7,8,8a-hexahydropyrido[4,3-b][1,4]oxazin-3-one] |  | 0.535 |
| COCc1ccccc1C#CC1CN(C(=O)N2CC[C@@H]3OCC(=O)N[C@@H]3C2)C1 [Example 191, (4aR,8aS)-6-[3-[2-[2-(Methoxymethyl)phenyl]ethynyl]azetidine-1-carbonyl]-4,4a,5,7,8,8a-hexahydropyrido[4,3-b][1,4]oxazin-3-one] |  | 0.081 |
| O=C1CO[C@H]2CCN(C(=O)N3CCC(C#Cc4ccccc4C(F)(F)F)CC3)C[C@H]2N1 [Example 192, (4aR,8aS)-6-(4-((2-(Trifluoromethyl)phenyl)ethynyl)piperidine-1-carbonyl)hexahydro-2H-pyrido[4,3-b][1,4]oxazin-3(4H)-one] |  | 0.018 |
| COc1ccccc1C#CC1CCN(C(=O)N2CC[C@@H]3OCC(=O)N[C@@H]3C2)CC1 [Example 193, (4aR,8aS)-6-(4-((2-Methoxyphenyl)ethynyl)piperidine-1carbonyl)hexahydro-2H-pyrido[4,3-b][1,4]oxazin-3(4H)-one] |  | 0.086 |
| Cc1ccccc1C#CC1CCN(C(=O)N2CC[C@@H]3OCC(=O)N[C@@H]3C2)CC1 [Example 194, (4aR,8aS)-6-(4-(o-Tolylethynyl)piperidine-1-carbonyl)hexahydro-2H-pyrido[4,3-b][1,4]oxazin-3(4H)-one] |  | 0.031 |
| Cc1cccc(C)c1C#CC1CCN(C(=O)N2CC[C@@H]3OCC(=O)N[C@@H]3C2)CC1 [Example 195, (4aR,8aS)-6-(4-((2,6-Dimethylphenyl)ethynyl)piperidine-1-carbonyl)hexahydro-2H-pyrido[4,3-b][1,4]oxazin-3(4H)-one] |  | 0.025 |
| CC1(C#Cc2ccc(Cl)cc2Cl)CCN(C(=O)N2CC[C@@H]3OCC(=O)N[C@@H]3C2)CC1 [Example 196, (4aR,8aS)-6-(4-((2,4-Dichlorophenyl)ethynyl)-4-methylpiperidine-1-carbonyl)hexahydro-2H-pyrido[4,3-b][1,4]oxazin-3(4H)-one] |  | 0.092 |
| CC1(C#Cc2ccc(F)cc2Cl)CCN(C(=O)N2CC[C@@H]3OCC(=O)N[C@@H]3C2)CC1 [Example 197, (4aR,8aS)-6-(4-((2-Chloro-4-fluorophenyl)ethynyl)-4-methylpiperidine-1-carbonyl)hexahydro-2H-pyrido[4,3-b][1,4]oxazin-3(4H)-one] |  | 0.23 |
| O=C1CO[C@H]2CCN(C(=O)N3CC(C#CC4(O)CCCC4)C3)C[C@H]2N1 [Example 198, (4aR,8aS)-6-[3-[2-(1-Hydroxycyclopentyl)ethynyl]azetidine-1-carbonyl]-4,4a,5,7,8,8a-hexahydropyrido[4,3-b][1,4]oxazin-3-one] |  | 0.507 |
| O=C1CO[C@H]2CCN(C(=O)N3CC(C#CC4=CCCC4)C3)C[C@H]2N1 [Example 199, (4aR,8aS)-6-[3-[2-(Cyclopenten-1-yl)ethynyl]azetidine-1-carbonyl]-4,4a,5,7,8,8a-hexahydropyrido[4,3-b][1,4]oxazin-3-one] |  | 0.107 |
| O=C1CO[C@H]2CCN(C(=O)N3CC(C#Cc4ccc(C(F)(F)F)cc4Cl)C3)C[C@H]2N1 [Example 200, (4aR,8aS)-6-(3-((2-Chloro-4-(trifluoromethyl)phenyl)ethynyl)azetidine-1-carbonyl)hexahydro-2H-pyrido[4,3-b][1,4]oxazin-3(4H)-one] |  | 0.002 |
| O=C1CO[C@H]2CCN(C(=O)N3CC(SCc4c(F)cccc4C(F)(F)F)C3)C[C@H]2N1 [Example 295, (4aR,8aS)-6-(3-((2-Fluoro-6-(trifluoromethyl)benzyl)thio)azetidine-1-carbonyl)hexahydro-2H-pyrido[4,3-b][1,4]oxazin-3(4H)-one] |  | 0.023 |
